# Measured values: paper PMC4948680 (European journal of pharmaceutical sciences : official …, 2016)
# Columns and labels:
# [1] = design: species or system humans
# Procedure: (§1) Clearance kinetics in each organ was determined by exponential curve fitting. The time-integrated activity concentration (TIAC) was obtained by integration of this exponential curve folded with the decay curve of ^111In and ^177Lu.Mouse dosimetry was calculated for both ^177Lu and ^111In using the TIAC and the 25 g RADAR mouse absorbed dose rates per unit activity S for each source and target organ combination ([Keenan et al., 2010]; [Konijnenberg et al., 2014]).
# Extrapolation of biodistribution uptake data in mice to humans was based on two options for interspecies scaling ([Stabin, 2008]). 1. (%IA/organ)human=[(%IA/g)mouse×Mmouse(kg)]×(m(g)/M(kg))human with m the organ mass and M the total body weight of mouse or human and with %IA/gand%IA/organ the percentage of the injected activity concentration and per organ, respectively. The mouse organ TIACs are multiplied with the ratio of mouse and human body weights Mmouse/Mhuman to obtain the extrapolated human TIAC, and this multiplied with the organ mass (from the MIRD standard man phantom) yields the residence time in each source organ. 2. (%IA/organ)human=(%IA/organ)mouse=(%IA/g)mouse×mmouse in this method the uptake per organ is extrapolated one-to-one from mouse to man. The extrapolated human residence time is obtained by multiplying the mouse TIAC or each source organ with its mouse organ mass. […]
# [2] = design: species or system mice
# Procedure: as §1
# in vivo = assay: in vivo; design: species or system Swiss albino mice; conditions: mouse; for tissue uptake at 0.5 h / tissue uptake at 1 h / tissue uptake at 4 h / tissue uptake at 48 h / tissue uptake at 72 h / tissue uptake at 24 h: Swiss albino, iv, 10 pmol peptide, total radioactivity, %ID/g tissue
# Procedure: Samples of blood and tissues of interest were excised, weighted and counted for radioactivity in the gamma counter (automated well-type multi-sample gamma counter; NaI(Tl) 3'' crystal, Canberra Packard Auto-Gamma 5000 series instrument). Data was calculated as percent injected dose per gramtissue (%ID/g) with the aid of suitable standards of the injected dose. Statistical analysis using the unpaired two-tailed Student's t-test was performed to compare values between A431-CCK2R(+) and A431-CCK2R(-) tumours, as well as kidney, stomach and A431-CCK2R(+) tumour values between 4 h control and gelofusine-treated animal groups; values P < 0.05 were considered statistically significant (Table 2). The pharmacokinetic profile was determined by fitting an exponential curve through the organ time-activity data according to the least-squares method. The number of exponentials in the fitted curve was analysed according to the […] Information Criterion (AICc). All fitting was performed with Graphpad Prism version 5.
compound,measurement,setting,value
"CSCC[C@H](NC(=O)[C@H](Cc1c[nH]c2ccccc12)NC(=O)CNC(=O)[C@H](Cc1ccc(O)cc1)NC(=O)[C@H](C)NC(=O)[C@@H](CCC(=O)O)NC(=O)[C@@H](CCC(=O)O)NC(=O)[C@@H](CCC(=O)O)NC(=O)[C@@H](CCC(=O)O)NC(=O)[C@@H](CCC(=O)O)NC(=O)[C@@H](CCC(=O)O)NC(=O)CN1CCN(CC(=O)O)CCN(CC(=O)O)CCN(CC(=O)O)CC1)C(=O)N[C@@H](CC(=O)O)C(=O)N[C@@H](Cc1ccccc1)C(N)=O [^111In-CP04, ^111In-DOTA-(DGlu)6-Ala-Tyr-Gly-Trp-Met-Asp-Phe-NH2, metal not drawn]",calculated absorbed dose for kidneys,[1],27.5 mGy/220 MBq
same,expected whole body radiation dose (effective dose),[1],9.9 mSv
same,"Absorbed dose per injected activity, Bone",[2],9 mGy/MBq
same,"Absorbed dose per injected activity, Kidneys",[2],56 mGy/MBq
same,"Absorbed dose per injected activity, Large intestine",[2],7 mGy/MBq
same,"Absorbed dose per injected activity, Liver",[2],3 mGy/MBq
same,"Absorbed dose per injected activity, Lungs",[2],3 mGy/MBq
same,"Absorbed dose per injected activity, Pancreas",[2],5 mGy/MBq
same,"Absorbed dose per injected activity, Small intestine",[2],7 mGy/MBq
same,"Absorbed dose per injected activity, Spleen",[2],3 mGy/MBq
same,"Absorbed dose per injected activity, Stomach wall",[2],15 mGy/MBq
same,"Absorbed dose per injected activity, Total body",[2],4 mGy/MBq
same,tissue uptake at 0.5 h,in vivo; Blood,1.74 ± 0.22 %ID/g
same,tissue uptake at 1 h,in vivo; Blood,0.51 ± 0.14 %ID/g
same,tissue uptake at 4 h,in vivo; Blood,0.02 ± 0.01 %ID/g
same,tissue uptake at 48 h,in vivo; Blood,0.01 ± 0.01 %ID/g
same,tissue uptake at 72 h,in vivo; Blood,0.01 ± 0.01 %ID/g
same,tissue uptake at 0.5 h,in vivo; Femur,4.62 ± 1.24 %ID/g
same,tissue uptake at 1 h,in vivo; Femur,2.62 ± 0.42 %ID/g
same,tissue uptake at 4 h,in vivo; Femur,0.96 ± 0.18 %ID/g
same,tissue uptake at 24 h,in vivo; Femur,0.53 ± 0.04 %ID/g
same,tissue uptake at 48 h,in vivo; Femur,0.55 ± 0.11 %ID/g
same,tissue uptake at 72 h,in vivo; Femur,0.49 ± 0.06 %ID/g
same,tissue uptake at 0.5 h,in vivo; Heart,0.7 ± 0.1 %ID/g
same,tissue uptake at 4 h,in vivo; Heart,0.03 ± 0.01 %ID/g
same,tissue uptake at 24 h,in vivo; Heart,0.02 ± 0.01 %ID/g
same,tissue uptake at 48 h,in vivo; Heart,0.02 ± 0.01 %ID/g
same,tissue uptake at 72 h,in vivo; Heart,0.03 ± 0.02 %ID/g
same,tissue uptake at 0.5 h,in vivo; Intestines,0.82 ± 0.14 %ID/g
same,tissue uptake at 1 h,in vivo; Intestines,0.39 ± 0.12 %ID/g
same,tissue uptake at 4 h,in vivo; Intestines,1.05 ± 0.35 %ID/g
same,tissue uptake at 48 h,in vivo; Intestines,0.08 ± 0.02 %ID/g
same,tissue uptake at 72 h,in vivo; Intestines,0.09 ± 0.04 %ID/g
same,tissue uptake at 0.5 h,in vivo; Kidneys,9.8 ± 2.07 %ID/g
same,tissue uptake at 1 h,in vivo; Kidneys,8.84 ± 2.05 %ID/g
same,tissue uptake at 4 h,in vivo; Kidneys,7.9 ± 1.98 %ID/g
same,tissue uptake at 24 h,in vivo; Kidneys,3.61 ± 0.31 %ID/g
same,tissue uptake at 48 h,in vivo; Kidneys,2.81 ± 0.63 %ID/g
same,tissue uptake at 72 h,in vivo; Kidneys,2.62 ± 0.24 %ID/g
same,tissue uptake at 0.5 h,in vivo; Liver,0.77 ± 0.11 %ID/g
same,tissue uptake at 1 h,in vivo; Liver,0.32 ± 0.15 %ID/g
same,tissue uptake at 24 h,in vivo; Liver,0.06 ± 0.01 %ID/g
same,tissue uptake at 48 h,in vivo; Liver,0.06 %ID/g
same,tissue uptake at 72 h,in vivo; Liver,0.05 ± 0.01 %ID/g
same,tissue uptake at 0.5 h,in vivo; Lung,1.05 ± 0.1 %ID/g
same,tissue uptake at 1 h,in vivo; Lung,0.4 ± 0.1 %ID/g
same,tissue uptake at 4 h,in vivo; Lung,0.06 ± 0.01 %ID/g
same,tissue uptake at 24 h,in vivo; Lung,0.03 ± 0.01 %ID/g
same,tissue uptake at 48 h,in vivo; Lung,0.02 ± 0.01 %ID/g
same,tissue uptake at 72 h,in vivo; Lung,0.03 ± 0.01 %ID/g
same,tissue uptake at 0.5 h,in vivo; Muscle,0.59 ± 0.1 %ID/g
same,tissue uptake at 4 h,in vivo; Muscle,0.04 ± 0.02 %ID/g
same,tissue uptake at 24 h,in vivo; Muscle,0.02 ± 0.01 %ID/g
same,tissue uptake at 48 h,in vivo; Muscle,0.03 ± 0.02 %ID/g
same,tissue uptake at 72 h,in vivo; Muscle,0.03 ± 0.02 %ID/g
same,tissue uptake at 0.5 h,in vivo; Pancreas,0.67 ± 0.08 %ID/g
same,tissue uptake at 4 h,in vivo; Pancreas,0.1 ± 0.01 %ID/g
same,tissue uptake at 24 h,in vivo; Pancreas,0.05 ± 0.01 %ID/g
same,tissue uptake at 48 h,in vivo; Pancreas,0.04 ± 0.01 %ID/g
same,tissue uptake at 72 h,in vivo; Pancreas,0.06 ± 0.03 %ID/g
same,tissue uptake at 0.5 h,in vivo; Spleen,0.36 ± 0.04 %ID/g
same,tissue uptake at 4 h,in vivo; Spleen,0.05 ± 0.01 %ID/g
same,tissue uptake at 24 h,in vivo; Spleen,0.04 ± 0.01 %ID/g
same,tissue uptake at 48 h,in vivo; Spleen,0.03 ± 0.01 %ID/g
same,tissue uptake at 72 h,in vivo; Spleen,0.04 ± 0.01 %ID/g
same,tissue uptake at 0.5 h,in vivo; Stomach,4.88 ± 0.85 %ID/g
same,tissue uptake at 1 h,in vivo; Stomach,2.99 ± 0.55 %ID/g
same,tissue uptake at 4 h,in vivo; Stomach,2.61 ± 0.82 %ID/g
same,tissue uptake at 24 h,in vivo; Stomach,1.48 ± 0.55 %ID/g
same,tissue uptake at 48 h,in vivo; Stomach,1.26 ± 0.26 %ID/g
same,tissue uptake at 72 h,in vivo; Stomach,0.92 ± 0.04 %ID/g
same,gastrointestinal tract clearance,in vivo,2.5%
same,"total body clearance T1/2, fast component (90%)",in vivo,17 min
same,"total body clearance, fraction of fast component",in vivo,90%
same,"total body clearance, fraction of slow component",in vivo,10%
